Test results as given in patent US9862717B2 (Merck Patent GmbH, priority 2014, dated 2018).

molecular target: T1, CDK8/CycC (Homo sapiens, UniProt P49336); test: FRET based Lanthascreen binding competition assay for CDK8 inhibitory activity; details: CDK8 co-expressed with CycC; class symbols; read-out: IC50
T1 construct: purchased Invitrogen PV4402
Source text: Biochemical Assay for CDK8 Inhibitory Activity FRET based Lanthascreen binding competition assay: A dye-labeled ATP competitive probe served as a FRET acceptor upon binding to CDK8 labeled with a strepavidin -Eu-chelate (via a biotinylated anti His antibody). The result was a fluorescence signal at 647 nm. In case this probe was competed by an inhibitor, such a signal cannot be generated any more. The CDK8 used for this assay was a protein co-expressed with CycC. The assay procedure for an assay in a 1536 well plate was performed according to the following: 2 μL CDK8/biotin-anti-His Ab/SA-Eu mix in Assay buffer were pipetted into the wells of a micro plate. 1 μL compound in 20 mM Hepes buffer/5% DMSO was added. The plate was shaken for 30 sec and incubated for 20 min at RT. 2 μL Alexa647-probe in assay buffer were added. The plate was shaken for 30 sec again and incubated for 60 min at RT in the dark. Then the plate was read out on a Perkin Elmer Envision (mode LANCE/TRF, excitation 340 nm emission 650 nm). […] The readouts were fitted to IC50 curves using Genedata Condoseo.

T1 sequence (P49336 whole entry): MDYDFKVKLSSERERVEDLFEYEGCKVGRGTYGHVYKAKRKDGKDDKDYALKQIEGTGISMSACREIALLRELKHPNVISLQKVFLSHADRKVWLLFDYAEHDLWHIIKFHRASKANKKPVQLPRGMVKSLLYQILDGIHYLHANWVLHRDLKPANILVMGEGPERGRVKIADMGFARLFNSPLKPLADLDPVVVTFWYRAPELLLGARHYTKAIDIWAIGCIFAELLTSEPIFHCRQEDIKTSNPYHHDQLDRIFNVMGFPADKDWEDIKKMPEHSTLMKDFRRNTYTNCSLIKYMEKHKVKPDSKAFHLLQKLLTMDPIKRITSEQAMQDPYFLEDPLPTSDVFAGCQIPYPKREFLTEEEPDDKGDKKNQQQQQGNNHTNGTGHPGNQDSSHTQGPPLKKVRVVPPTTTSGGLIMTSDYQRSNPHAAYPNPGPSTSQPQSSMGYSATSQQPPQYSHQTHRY
T1 sequence (P24863 whole entry partner): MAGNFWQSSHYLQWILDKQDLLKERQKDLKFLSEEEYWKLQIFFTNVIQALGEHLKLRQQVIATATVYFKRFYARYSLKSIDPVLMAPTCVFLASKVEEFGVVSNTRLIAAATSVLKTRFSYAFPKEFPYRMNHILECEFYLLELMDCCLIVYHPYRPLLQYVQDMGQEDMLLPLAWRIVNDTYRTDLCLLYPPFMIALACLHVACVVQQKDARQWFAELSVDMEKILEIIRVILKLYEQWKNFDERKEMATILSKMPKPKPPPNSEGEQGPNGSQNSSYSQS

SMILES | IC50 [µM]
Cc1n[nH]c2ncc(C(=O)N3CCCC(c4ccc(Cl)cc4)C3)cc12 (centres unmarked) [compound 67, [3-(4-Chloro-phenyl)-piperidin-1-yl]-(3-methyl-1H-pyrazolo[3,4-b]pyridin-5-yl)-methanone] | 0.01 to 0.1
Cc1n[nH]c2ncc(C(=O)N3CCC(c4ccc(Cl)cc4)C3)cc12 (centres unmarked) [compound 68, [3-(4-Chloro-phenyl)-pyrrolidin-1-yl]-(3-methyl-1H-pyrazolo[3,4-b]pyridin-5-yl)-methanone] | < 0.01
O=C(c1cnc2[nH]nc(C3CC3)c2c1)N1CCCC1c1ccc(Cl)cc1 (centres unmarked) [compound 70, [2-(4-Chloro-phenyl)-pyrrolidin-1-yl]-(3-cyclopropyl-1H-pyrazolo[3,4-b]pyridin-5-yl)-methanone] | 0.01 to 0.1
O=C(c1cnc2[nH]nc(C(F)(F)F)c2c1)N1CCCC1c1ccc(Cl)cc1 (centres unmarked) [compound 71, [2-(4-Chloro-phenyl)-pyrrolidin-1-yl]-(3-trifluoromethyl-1H-pyrazolo[3,4-b]pyridin-5-yl)-methanone] | 0.01 to 0.1
Nc1n[nH]c2ccc(C(=O)N3CCCCC3Cc3ccccc3)cc12 (centres unmarked) [compound 81, (3-Amino-1H-indazol-5-yl)-(2-benzyl-piperidin-1-yl)-methanone] | 0.1 to 1
Nc1n[nH]c2ccc(C(=O)N3CCCCC3c3ccccc3)cc12 (centres unmarked) [compound 82, (3-Amino-1H-indazol-5-yl)-(2-phenyl-piperidin-1-yl)-methanone] | 0.01 to 0.1
Nc1n[nH]c2ccc(C(=O)N3CCCC3c3ccccc3)cc12 (centres unmarked) [compound 83, (3-Amino-1H-indazol-5-yl)-(2-phenyl-pyrrolidin-1-yl)-methanone] | 0.01 to 0.1
Nc1n[nH]c2ccc(C(=O)N3CCC(c4ccccc4)C3)cc12 (centres unmarked) [compound 84, (3-Amino-1H-indazol-5-yl)-(3-phenyl-pyrrolidin-1-yl)-methanone] | 0.1 to 1
Nc1n[nH]c2ccc(C(=O)N3CC[C@H](c4ccccc4)C3)cc12 [compound 87, (3-Amino-1H-indazol-5-yl)-((R)-3-phenyl-pyrrolidin-1-yl)-methanone] | 0.1 to 1
Nc1n[nH]c2ccc(C(=O)N3CCC[C@@H]3c3ccccc3)cc12 [compound 91] | 0.01 to 0.1
Nc1n[nH]c2ccc(C(=O)N3CCC3c3ccc(Cl)cc3)cc12 (centres unmarked) [compound 104, (3-Amino-1H-indazol-5-yl)-[2-(4-chloro-phenyl)-azetidin-1-yl]-methanone] | 0.01 to 0.1
Nc1n[nH]c2ccc(C(=O)N3CCCC3c3ccc(C(F)(F)F)cc3)cc12 (centres unmarked) [compound 112, (3-Amino-1H-indazol-5-yl)-[2-(4-trifluoromethyl-phenyl)-pyrrolidin-1-yl]-methanone] | 0.01 to 0.1
Nc1n[nH]c2ccc(C(=O)N3CCCC3c3ccccc3OCC(F)(F)F)cc12 (centres unmarked) [compound 114, (3-Amino-1H-indazol-5-yl)-{2-[2-(2,2,2-trifluoro-ethoxy)-phenyl]-pyrrolidin-1-yl}-methanone] | 0.1 to 1
Nc1n[nH]c2ccc(C(=O)N3CCCC(c4ccccc4)C3)cc12 (centres unmarked) [compound 115] | 0.1 to 1
Nc1n[nH]c2ccc(C(=O)N3CCCC(c4ccc(Cl)cc4)C3)cc12 (centres unmarked) [compound 116, (3-Amino-1H-indazol-5-yl)-[3-(4-chloro-phenyl)-piperidin-1-yl]-methanone] | 0.1 to 1
Cc1n[nH]c2ncc(C(=O)N3CCC[C@H]3c3ccncc3)cc12 [compound 122, (3-Methyl-1H-pyrazolo[3,4-b]pyridin-5-yl)-((S)-2-pyridin-4-yl-pyrrolidin-1-yl)-methanone] | 0.1 to 1
Cc1n[nH]c2ncc(C(=O)N3CCC[C@H]3c3cccnc3)cc12 [compound 129, (3-Methyl-1H-pyrazolo[3,4-b]pyridin-5-yl)-((S)-2-pyridin-3-yl-pyrrolidin-1-yl)-methanone] | 0.1 to 1
Nc1n[nH]c2ccc(C(=O)N3CCC[C@H]3c3ccccc3)cc12 [compound 131, (3-Amino-1H-indazol-5-yl)-((S)-2-phenyl-pyrrolidin-1-yl)-methanone] | 0.1 to 1
Nc1n[nH]c2ccc(C(=O)N3CCC[C@@H]3c3ccccc3)cc12 [compound 132, (3-Amino-1H-indazol-5-yl)-((R)-2-phenyl-pyrrolidin-1-yl)-methanone] | 0.1 to 1

The remaining lines, values ahead:

IC50 [µM] | SMILES
0.1 to 1 | Cc1n[nH]c2ncc(C(=O)N3CCCC(c4ccccc4)C3)cc12 (centres unmarked) [compound 66, (3-Methyl-1H-pyrazolo[3,4-b]pyridin-5-yl)-(3-phenyl-piperidin-1-yl)-methanone]
0.01 to 0.1 | Cc1n[nH]c2ncc(C(=O)N3CCCC3c3ccc(Cl)c(F)c3)cc12 (centres unmarked) [compound 69, [2-(4-Chloro-3-fluoro-phenyl)-pyrrolidin-1-yl]-(3-methyl-1H-pyrazolo[3,4-b]pyridin-5-yl)-methanone]
0.1 to 1 | Nc1n[nH]c2ccc(C(=O)N3CC[C@@H](c4ccccc4)C3)cc12 [compound 88, (3-Amino-1H-indazol-5-yl)-((S)-3-phenyl-pyrrolidin-1-yl)-methanone]
0.01 to 0.1 | Nc1n[nH]c2ncc(C(=O)N3CCC[C@H]3c3ccc(Cl)cc3)cc12 [compound 96, (3-Amino-1H-pyrazolo[3,4-b]pyridin-5-yl)-[(S)-2-(4-chloro-phenyl)-pyrrolidin-1-yl]-methanone]
0.01 to 0.1 | Nc1n[nH]c2ncc(C(=O)N3CCC[C@H]3c3ccc(Br)cc3)cc12 [compound 98, (3-Amino-1H-pyrazolo[3,4-b]pyridin-5-yl)-[(S)-2-(4-bromo-phenyl)-pyrrolidin-1-yl]-methanone]
0.1 to 1 | Nc1n[nH]c2ccc(C(=O)N3CCCCCC3c3ccc(Cl)cc3)cc12 (centres unmarked) [compound 106, (3-Amino-1H-indazol-5-yl)-[2-(4-chloro-phenyl)-azepan-1-yl]-methanone]
0.1 to 1 | Nc1n[nH]c2ccc(C(=O)N3CCCCCC3c3cccc(F)c3)cc12 (centres unmarked) [compound 107, (3-Amino-1H-indazol-5-yl)-[2-(3-fluoro-phenyl)-azepan-1-yl]-methanone]
0.1 to 1 | CCOc1ccccc1C1CCCN1C(=O)c1ccc2[nH]nc(N)c2c1 (centres unmarked) [compound 113, (3-Amino-1H-indazol-5-yl)-[2-(2-ethoxy-phenyl)-pyrrolidin-1-yl]-methanone]
0.1 to 1 | Cc1n[nH]c2ncc(C(=O)N3CC(O)CC3c3ccc(F)cc3)cc12 (centres unmarked) [compound 127, [2-(4-Fluoro-phenyl)-4-hydroxy-pyrrolidin-1-yl]-(3-methyl-1H-pyrazolo[3,4-b]pyridin-5-yl)-methanone]

same assay, conditions: IC50 [μM], CDK8 co-expressed with CycC; class symbols

SMILES | IC50 [µM]
Nc1n[nH]c2ccc(C(=O)N3CCCC3c3ccc(Br)cc3)cc12 (centres unmarked) [compound 74, (3-Amino-1H-indazol-5-yl)-[2-(4-bromo-phenyl)-pyrrolidin-1-yl]-methanone] | < 0.01
Nc1n[nH]c2ccc(C(=O)N3CCC[C@@H]3c3ccc(Cl)cc3)cc12 [compound 80, (3-amino-1H-indazol-5-yl)-[(R)-2-(4-chloro-phenyl)-pyrrolidin-1-yl]-methanone] | 0.1 to 1
Nc1n[nH]c2ccc(C(=O)N3CCC(c4ccc(Cl)cc4)C3)cc12 (centres unmarked) [compound 117, (3-Amino-1H-indazol-5-yl)-[3-(4-chloro-phenyl)-pyrrolidin-1-yl]-methanone] | 0.01 to 0.1
Nc1n[nH]c2ccc(C(=O)N3CCC[C@@H]3c3ccc(F)cc3)cc12 [compound 120, (3-Amino-1H-indazol-5-yl)-[(R)-2-(4-fluoro-phenyl)-pyrrolidin-1-yl]-methanone] | 0.1 to 1
Nc1n[nH]c2ccc(C(=O)N3CC[C@H]3c3ccc(F)cc3)cc12 [compound 134, (3-Amino-1H-indazol-5-yl)-[(S)-2-(4-fluoro-phenyl)-azetidin-1-yl]-methanone] | 0.01 to 0.1

Next, values leading:

IC50 [µM] | SMILES
< 0.01 | Nc1n[nH]c2ccc(C(=O)N3CCC[C@H]3c3ccc(Br)cc3)cc12 [compound 76, (3-Amino-1H-indazol-5-yl)-[(S)-2-(4-bromo-phenyl)-pyrrolidin-1-yl]-methanone]
0.1 to 1 | Nc1n[nH]c2ccc(C(=O)N3CCC[C@@H]3c3ccc(Br)cc3)cc12 [compound 77, (3-Amino-1H-indazol-5-yl)-[(R)-2-(4-bromo-phenyl)-pyrrolidin-1-yl]-methanone]
< 0.01 | Nc1n[nH]c2ccc(C(=O)N3CCC[C@H]3c3ccc(Cl)cc3)cc12 [compound 79, (3-Amino-1H-indazol-5-yl)-[(S)-2-(4-chloro-phenyl)-pyrrolidin-1-yl]-methanone]
< 0.01 | Nc1n[nH]c2ccc(C(=O)N3CCCC3c3ccc(F)cc3)cc12 (centres unmarked) [compound 85, (3-Amino-1H-indazol-5-yl)-[2-(4-fluoro-phenyl)-pyrrolidin-1-yl]-methanone]
0.01 to 0.1 | Nc1n[nH]c2ccc(C(=O)N3CCCC[C@H]3c3ccc(F)cc3)cc12 [compound 92, (3-Amino-1H-indazol-5-yl)-[(S)-2-(4-fluoro-phenyl)-piperidin-1-yl]-methanone]
0.01 to 0.1 | Nc1n[nH]c2ccc(C(=O)N3CCC3c3ccc(F)cc3)cc12 (centres unmarked) [compound 105, (3-Amino-1H-indazol-5-yl)-[2-(4-fluoro-phenyl)-azetidin-1-yl]-methanone]
0.01 to 0.1 | Nc1n[nH]c2ccc(C(=O)N3CCC[C@H]3c3ccc(F)cc3)cc12 [compound 124, (3-Amino-1H-indazol-5-yl)-[(S)-2-(4-fluoro-phenyl)-pyrrolidin-1-yl]-methanone]
0.1 to 1 | Nc1n[nH]c2ccc(C(=O)N3CC[C@@H]3c3ccc(F)cc3)cc12 [compound 135, (3-Amino-1H-indazol-5-yl)-[(R)-2-(4-fluoro-phenyl)-azetidin-1-yl]-methanone]
